# Reference: PubChem BioAssay AID1963425 (Molecular Pharmacology Branch, DTP, NCI, 2024)
# System: 323965-272-R-J2-PDC complex spheroid growth, % test/control
# Assay: Anticancer human tumor 323965-272-R-J2-PDC patient-derived pancreatic carcinoma cell line growth inhibition [Asc]
# Settings: for IC50: curve of first compound; for viability, T/C: stronger effect = lower value
# Summary of the method: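 Stromal components (HUVEC and hMSC) are co-assembled with the cancer cells into multicellular spheroids. Drugs are then added singly or paired, at concentrations falling by half-log increments from a clinically achievable maximum, capped at 10 microM without known Cmax.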
# [1] = second compound 0.00949 µM, first compound 0.0316 µM
# [2] = second compound 0.00949 µM, first compound 0.1 µM
# [3] = second compound 0.00949 µM, first compound 0.316 µM
# [4] = second compound 0.00949 µM, first compound 1 µM
# [5] = second compound 0.00949 µM, first compound 3.16 µM
# [6] = second compound 0.00949 µM, first compound 10 µM
# [7] = second compound 0.03 µM, first compound 0.0316 µM
# [8] = second compound 0.03 µM, first compound 0.1 µM
# [9] = second compound 0.03 µM, first compound 0.316 µM
# [10] = second compound 0.03 µM, first compound 1 µM
# [11] = second compound 0.03 µM, first compound 3.16 µM
# [12] = second compound 0.03 µM, first compound 10 µM
# [13] = second compound 0.0949 µM, first compound 0.0316 µM
# [14] = second compound 0.0949 µM, first compound 0.1 µM
# [15] = second compound 0.0949 µM, first compound 0.316 µM
# [16] = second compound 0.0949 µM, first compound 1 µM
# [17] = second compound 0.0949 µM, first compound 3.16 µM
# [18] = second compound 0.0949 µM, first compound 10 µM
# [19] = second compound 0.3 µM, first compound 0.0316 µM
# [20] = second compound 0.3 µM, first compound 0.1 µM
# [21] = second compound 0.3 µM, first compound 0.316 µM
# [22] = second compound 0.3 µM, first compound 1 µM
# [23] = second compound 0.3 µM, first compound 3.16 µM
# [24] = second compound 0.3 µM, first compound 10 µM
# [25] = second compound 0.949 µM, first compound 0.0316 µM
# [26] = second compound 0.949 µM, first compound 0.1 µM
# [27] = second compound 0.949 µM, first compound 0.316 µM
# [28] = second compound 0.949 µM, first compound 1 µM
# [29] = second compound 0.949 µM, first compound 3.16 µM
# [30] = second compound 0.949 µM, first compound 10 µM
# [31] = second compound 3 µM, first compound 0.0316 µM
# [32] = second compound 3 µM, first compound 0.1 µM
# [33] = second compound 3 µM, first compound 0.316 µM
# [34] = second compound 3 µM, first compound 1 µM
# [35] = second compound 3 µM, first compound 3.16 µM
# [36] = second compound 3 µM, first compound 10 µM
# 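Also: compound exposure lasted 7 days starting three days after spheroid seeding.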
# 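For viability, T/C in this document: 100% = DMSO vehicle control wells with viability set relative to vehicle.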
compound,measurement,setting,value
C#Cc1c(F)ccc2cc(O)cc(-c3ncc4c(N5CC6CCC(C5)N6)nc(OCC56CCCN5CC(F)C6)nc4c3F)c12 (stereo not drawn) + CCN1C(C(=O)NC23CCC(C(=O)O)(CC2)CC3)C(c2cccc(Cl)c2F)C2(C(=O)Nc3cc(Cl)ccc32)C12CCCCC2,IC50,second compound 0.00949 µM,> 10 µM
same,IC50,second compound 0.03 µM,> 10 µM
same,IC50,second compound 0.0949 µM,> 10 µM
same,IC50,second compound 0.3 µM,> 10 µM
same,IC50,second compound 0.949 µM,> 10 µM
same,IC50,second compound 3 µM,> 10 µM
same,"viability, T/C",[1],100%
same,"viability, T/C",[2],100%
same,"viability, T/C",[3],98.2%
same,"viability, T/C",[4],92.6%
same,"viability, T/C",[5],81.2%
same,"viability, T/C",[6],59.4%
same,"viability, T/C",[7],107%
same,"viability, T/C",[8],102%
same,"viability, T/C",[9],102%
same,"viability, T/C",[10],106%
same,"viability, T/C",[11],83.8%
same,"viability, T/C",[12],63.1%
same,"viability, T/C",[13],104%
same,"viability, T/C",[14],108%
same,"viability, T/C",[15],94.1%
same,"viability, T/C",[16],88.9%
same,"viability, T/C",[17],70.8%
same,"viability, T/C",[18],64.2%
same,"viability, T/C",[19],105%
same,"viability, T/C",[20],110%
same,"viability, T/C",[21],112%
same,"viability, T/C",[22],91.9%
same,"viability, T/C",[23],78.6%
same,"viability, T/C",[24],59.8%
same,"viability, T/C",[25],101%
same,"viability, T/C",[26],104%
same,"viability, T/C",[27],102%
same,"viability, T/C",[28],89.7%
same,"viability, T/C",[29],79.3%
same,"viability, T/C",[30],64.8%
same,"viability, T/C",[31],102%
same,"viability, T/C",[32],102%
same,"viability, T/C",[33],97.8%
same,"viability, T/C",[34],84.7%
same,"viability, T/C",[35],63.1%
same,"viability, T/C",[36],67.9%
C=C(F)C(=O)N1CCN(c2nc(OCC3CCCN3C)nc3c2CCN(c2cccc4cccc(Cl)c24)C3)CC1CC#N (stereo not drawn) + CCN1C(C(=O)NC23CCC(C(=O)O)(CC2)CC3)C(c2cccc(Cl)c2F)C2(C(=O)Nc3cc(Cl)ccc32)C12CCCCC2,IC50,second compound 0.00949 µM,> 10 µM
same,IC50,second compound 0.03 µM,5.59 µM
same,IC50,second compound 0.0949 µM,5.62 µM
same,IC50,second compound 0.3 µM,5.79 µM
same,IC50,second compound 0.949 µM,5.21 µM
same,IC50,second compound 3 µM,4.67 µM
same,"viability, T/C",[1],62.2%
same,"viability, T/C",[2],64%
same,"viability, T/C",[3],61.5%
same,"viability, T/C",[4],58.6%
same,"viability, T/C",[5],85.7%
same,"viability, T/C",[6],32.8%
same,"viability, T/C",[7],79%
same,"viability, T/C",[8],65.3%
same,"viability, T/C",[9],59.7%
same,"viability, T/C",[10],61.2%
same,"viability, T/C",[11],81.8%
same,"viability, T/C",[12],30.2%
same,"viability, T/C",[13],73.4%
same,"viability, T/C",[14],60%
same,"viability, T/C",[15],60.5%
same,"viability, T/C",[16],63.7%
same,"viability, T/C",[17],74.3%
same,"viability, T/C",[18],33.5%
same,"viability, T/C",[19],81.1%
same,"viability, T/C",[20],64.4%
same,"viability, T/C",[21],65%
same,"viability, T/C",[22],66.3%
same,"viability, T/C",[23],74.8%
same,"viability, T/C",[24],31.8%
same,"viability, T/C",[25],73.4%
same,"viability, T/C",[26],65.9%
same,"viability, T/C",[27],63.8%
same,"viability, T/C",[28],62.7%
same,"viability, T/C",[29],83.8%
same,"viability, T/C",[30],24.1%
same,"viability, T/C",[31],70.7%
same,"viability, T/C",[32],57%
same,"viability, T/C",[33],61%
same,"viability, T/C",[34],71.9%
same,"viability, T/C",[35],82.3%
same,"viability, T/C",[36],13.8%
C=CC(=O)N1CCN(c2nc(=O)n(-c3c(C)ccnc3C(C)C)c3nc(-c4c(O)cccc4F)c(F)cc23)C(C)C1 (stereo not drawn) + CCN1C(C(=O)NC23CCC(C(=O)O)(CC2)CC3)C(c2cccc(Cl)c2F)C2(C(=O)Nc3cc(Cl)ccc32)C12CCCCC2,IC50,second compound 0.00949 µM,> 10 µM
same,IC50,second compound 0.03 µM,> 10 µM
same,IC50,second compound 0.0949 µM,> 10 µM
same,IC50,second compound 0.3 µM,> 10 µM
same,IC50,second compound 0.949 µM,> 10 µM
same,IC50,second compound 3 µM,> 10 µM
same,"viability, T/C",[1],82%
same,"viability, T/C",[2],73.5%
same,"viability, T/C",[3],60.5%
same,"viability, T/C",[4],64.8%
same,"viability, T/C",[5],68.7%
same,"viability, T/C",[6],59.1%
same,"viability, T/C",[7],75.4%
same,"viability, T/C",[8],70.1%
same,"viability, T/C",[9],68.7%
same,"viability, T/C",[10],68.7%
same,"viability, T/C",[11],65.8%
same,"viability, T/C",[12],65.6%
same,"viability, T/C",[13],80.7%
same,"viability, T/C",[14],67.2%
same,"viability, T/C",[15],62.8%
same,"viability, T/C",[16],73%
same,"viability, T/C",[17],66.2%
same,"viability, T/C",[18],61.8%
same,"viability, T/C",[19],75.1%
same,"viability, T/C",[20],73.2%
same,"viability, T/C",[21],65.6%
same,"viability, T/C",[22],60.9%
same,"viability, T/C",[23],67.7%
same,"viability, T/C",[24],63.2%
same,"viability, T/C",[25],84.7%
same,"viability, T/C",[26],68.3%
same,"viability, T/C",[27],62.8%
same,"viability, T/C",[28],69.8%
same,"viability, T/C",[29],73.7%
same,"viability, T/C",[30],61.7%
same,"viability, T/C",[31],79.3%
same,"viability, T/C",[32],71.5%
same,"viability, T/C",[33],61%
same,"viability, T/C",[34],68.1%
same,"viability, T/C",[35],65.8%
same,"viability, T/C",[36],58.6%
CNC(C)C(=O)NC1CN(S(=O)(=O)c2cccc(S(=O)(=O)N3CCC4CCC(C(=O)NC(c5ccccc5)c5ccccc5)N4C(=O)C(NC(=O)C(C)NC)C3)c2)CCC2CCC(C(=O)NC(c3ccccc3)c3ccccc3)N2C1=O (stereo not drawn) + CCN1C(C(=O)NC23CCC(C(=O)O)(CC2)CC3)C(c2cccc(Cl)c2F)C2(C(=O)Nc3cc(Cl)ccc32)C12CCCCC2,IC50,second compound 0.00949 µM,> 1 µM
same,IC50,second compound 0.03 µM,> 1 µM
same,IC50,second compound 0.0949 µM,> 1 µM
same,IC50,second compound 0.3 µM,> 1 µM
same,IC50,second compound 0.949 µM,> 1 µM
same,IC50,second compound 3 µM,> 1 µM
same,"viability, T/C","second compound 0.00949 µM, first compound 0.00316 µM",110%
same,"viability, T/C","second compound 0.00949 µM, first compound 0.01 µM",106%
same,"viability, T/C",[1],96.8%
same,"viability, T/C",[2],103%
same,"viability, T/C",[3],109%
same,"viability, T/C",[4],105%
same,"viability, T/C","second compound 0.03 µM, first compound 0.00316 µM",102%
same,"viability, T/C","second compound 0.03 µM, first compound 0.01 µM",99%
same,"viability, T/C",[7],105%
same,"viability, T/C",[8],105%
same,"viability, T/C",[9],113%
same,"viability, T/C",[10],106%
same,"viability, T/C","second compound 0.0949 µM, first compound 0.00316 µM",118%
same,"viability, T/C","second compound 0.0949 µM, first compound 0.01 µM",103%
same,"viability, T/C",[13],103%
same,"viability, T/C",[14],95%
same,"viability, T/C",[15],106%
same,"viability, T/C",[16],99.5%
same,"viability, T/C","second compound 0.3 µM, first compound 0.00316 µM",123%
same,"viability, T/C","second compound 0.3 µM, first compound 0.01 µM",113%
same,"viability, T/C",[19],107%
same,"viability, T/C",[20],92.8%
same,"viability, T/C",[21],104%
same,"viability, T/C",[22],102%
same,"viability, T/C","second compound 0.949 µM, first compound 0.00316 µM",112%
same,"viability, T/C","second compound 0.949 µM, first compound 0.01 µM",107%
same,"viability, T/C",[25],96.2%
same,"viability, T/C",[26],104%
same,"viability, T/C",[27],95.1%
same,"viability, T/C",[28],88.5%
same,"viability, T/C","second compound 3 µM, first compound 0.00316 µM",98.9%
same,"viability, T/C","second compound 3 µM, first compound 0.01 µM",109%
same,"viability, T/C",[31],90.3%
same,"viability, T/C",[32],101%
same,"viability, T/C",[33],89.5%
same,"viability, T/C",[34],95.2%
